Patent publication US20260376283A1, “A METHOD IMPLEMENTING MORPHOLOGICAL CHANGES OF EXTRACELLULAR ORGANELLE VESICLES SO AS TO EXAMINE THE TRANSPORTING ACTIVITY OF MEMBRANE TRANSPORT PROTEINS AND OTHER RELATED METHODS” (PARIS SCIENCES ET LETTRES, priority 2023, published 2026)

How the values were obtained:
Type in all cases: biochemical
[1] = test system: plasma membrane cell component enriched with SERCA; experiment: Plasma membrane cell component enriched with SERCA, response to CaCl2 (Example 7); settings: role: substrate, CaCl2 60 mOsm/L, ATP 100 μM, SERCA relocalized
Source text: (§1) In this example, an Endoplasmic Reticulum extracellular organelle vesicle and a plasma membrane cell component are isolated with micropipettes.
(§2) The SERCA protein is over-expressed in cell 1 on its native organelle, the endoplasmic reticulum. In cell 2, SERCA is relocalized by genetic construction on the plasma membrane cell component. This finally serves to isolate with micropipettes, one endoplasmic reticulum extracellular vesicle with SERCA extracted from cell 1 and one plasma membrane cell component enriched with SERCA deriving from cell 2.
(§3) These extracellular organelle vesicle and plasma membrane cell component were isolated thanks to ER and plasma membrane protein probes, over-expressed by COS7 cells, before organelle vesicle and plasma membrane cell component extraction.
(§4) ER extracellular vesicle and plasma membrane cell component were both put in contact with CaCl2 (60 mOsm/L) and ATP (100 μM) during 5 minutes.
(§5) At t=0s, CaCl2 (60 mOsm/L) and ATP (100 μM) were added.

[2] = test system: Endoplasmic Reticulum extracellular organelle vesicle (SERCA pump); experiment: ER vesicle response to CaCl2 compared with nucleus (Example 6); settings: role: substrate, CaCl2 60 mOsm/L / 20 mOsm/L, ATP 100 μM, FIG. 8
Method: (§6) In this example, an Endoplasmic Reticulum extracellular organelle vesicle and a nucleus cell component are isolated together from a same cell with one micropipette, and visualized. ER extracellular organelle vesicle and nucleus cell component were both put in contact with CaCl2 (20 mOsm/L) and ATP (100 μM) during 5 minutes.
(§7) FIG. 8 represents Endoplasmic Reticulum extracellular organelle vesicle and nucleus cell component are maintained thanks one micropipette into a HKM diluted buffer (30 mOsm/L). The extracellular organelle vesicle and the nucleus cell component were respectively isolated thanks to ER and nucleus probes, over-expressed by COS7 cells, before organelle vesicle and nucleus extraction.
(§8) At t=0s, CaCl2 (60 mOsm/L) and ATP (100 μM) were added. Dotted line circle corresponds to the size of the endoplasmic reticulum vesicle before contacting with CaCl2.

[3] = test system: Endoplasmic Reticulum extracellular organelle vesicle (SERCA over-expressed); experiment: ER vesicle with over-expressed SERCA, response to CaCl2 (Example 7); settings: role: substrate, CaCl2 60 mOsm/L, ATP 100 μM
Source text: as §1, §2, §3, §4, §5

[4] = test system: ER extracellular organelle vesicle; experiment: Ca2+ internalization in ER extracellular organelle vesicle by Fluo8-AM fluorescence (Example 3); settings: role: substrate, CaCl2 30 mOsm/L, ATP 100 μM, FIG. 5
Method: FIG. 5 represents an ER extracellular organelle vesicle which is maintained thanks to a micropipette into a HKM diluted buffer (20 mOsm/L). This extracellular organelle vesicle has been isolated thanks to an ER resident protein (KDEL), over-expressed by COS7 cells, before organelle vesicles extraction. Before organelle extraction, cells were incubated during 1 h with a fluorophore called “Fluo8-AM” to report for calcium volumic concentration in organelles thanks to green fluorescence emission.
At t=0s, CaCl2 (30 mOsm/L) and ATP (100 μM) were added. Fluorescence microscopy snaps are visualized on FIG. 5 and show calcium concentration inside the ER extracellular organelle vesicle during the experiment.

[5] = test system: Ca^2+ pump of the Endoplasmic Reticulum; experiment: Abnormal expression/activity of Ca2+ pump of ER by vesicle morphological change (Example 2)
Method: (§9) FIG. 3 A) represents an extracellular organelle vesicle of endoplasmic reticulum (ER) which is maintained thanks to a micropipette into a HKM diluted buffer (20 mOsm/L) as an extravesicular aqueous medium. This extracellular organelle vesicle has been isolated thanks to an ER resident protein (KDEL), over-expressed by COS7 cells, before organelle vesicles extraction.
At t=0s, CaCl2 (60 mOsm/L) and ATP (100 μM) were added. At t=20s, the ER extracellular organelle vesicle is deflated: it reached its minimum volume (Vi1) and its associated maximum fluorescence signal (Fi1).

[6] = test system: nucleus cell component (SERCA pump); experiment: Nucleus cell component response to CaCl2 (Example 6); settings: role: substrate, CaCl2 60 mOsm/L / 20 mOsm/L, ATP 100 μM, FIG. 8
Method: as §6, §7, §8

[7] = test system: mitochondria extracellular organelle vesicle; experiment: SERCA specificity: mitochondria vesicle response to CaCl2 (Example 5); settings: role: substrate, CaCl2 30 mOsm/L, ATP 100 μM, FIG. 7
Method: (§10) In this example, an Endoplasmic Reticulum extracellular organelle vesicle and a mitochondria extracellular organelle vesicle are isolated simultaneously with micropipettes, and visualized. ER and mitochondria extracellular organelle vesicles were both put in contact with CaCl2 (30 mOsm/L) and ATP (100 μM) during one hour.
(§11) FIG. 7 represents Endoplasmic Reticulum extracellular organelle vesicle and mitochondria extracellular organelle vesicle are maintained thanks two micropipettes into a HKM diluted buffer (30 mOsm/L). These extracellular organelle vesicles were isolated thanks to ER and mitochondria resident proteins, over-expressed by COS7 cells, before organelle vesicles extraction.
(§12) At t=0s, CaCl2 (30 mOsm/L) and ATP (100 μM) were added. Dotted line circles all correspond to the size of the vesicle before contacting with CaCl2.

[8] = test system: ion pump SERCA localized on Endoplasmic Reticulum vesicles; experiment: Ca2+ pump transporting activity by morphological change (deflation/re-swelling) of ER extracellular organelle vesicles (Example 1)
Method: An initial HKM buffer was prepared with 50 mM Hepes (known as 2-[4-(2-hydroxyethyl)piperazin-1-yl]ethanesulfonic acid), 120 mM potassium acetate, and 1 mM MgCl2 (in Milli-Q water) at pH 7.4. Said initial HKM buffer has an osmolarity of 280±15 mOsm/L.
Then, a membrane tension is applied on cells so as to produce extracellular organelle vesicles without lysing them. At that step, the extracellular organelle vesicles are released (or produced) thanks to the lysis and the removal of the plasma membrane. The membrane tension is carried out by micro-manipulation of the cells under confocal microscope thanks to a micropipette aspiration technique. Micropipette radius is around 1 μm. Thanks to a slight aspiration, a bilayer tongue of the plasma membrane was sucked into the micropipette. The aspiration is then increased at an approximate rate of 10 mbar/min, causing a proportional increase in the bilayer surface tension. At a certain applied tension (e.g. surface tension<0.75 mN/m), the plasma membrane ruptured thanks to a pore opening in the plasma membrane and the extracellular organelle vesicles are released (or extracted).
After extraction, one or more extracellular organelle vesicles are isolated using a micropipette. The micropipettes are used to hold a vesicle during the following methods of the present invention. Before the addition of molecules (ions, sugars or drug molecules), an acquisition is launched to observe the initial size of the vesicle.
Once the acquisition is started, the extracellular organelle vesicle, held by the micropipette is passed through an aqueous solution containing CaCl2 (60 mOsm/L) and ATP (100 μM). Contacting calcium ions with said extracellular organelle vesicle increases the osmolarity of the extravesicular aqueous medium. […] This innovative process allows to examine the transporting activity of the ion pump SERCA localized on Endoplasmic Reticulum vesicles.
as §9, with “1” for “3”
At t=0s, CaCl2 (60 mOsm/L) and ATP (100 μM) were added. At t=20s, the ER extracellular organelle vesicle is deflated: it reached its minimum volume (Vi1) and its associated maximum fluorescence signal (Fl1).
Once the acquisition is started, the ER extracellular organelle vesicle, held by the micropipette is passed through an aqueous solution containing sucrose (60 mOsm). […] Sucrose can thus be used as a control or reference in the method of the present invention.

[9] = test system: Endoplasmic Reticulum extracellular organelle vesicle (SERCA pump); experiment: SERCA specificity: ER vesicle response to CaCl2 (Example 5); settings: role: substrate, CaCl2 30 mOsm/L, ATP 100 μM, FIG. 7
Method: as §10, §11, §12

[10] = role: substrate, CaCl2 60 mOsm/L, ATP 100 μM, FIG. 3
[11] = role: substrate, CaCl2 60 mOsm/L, ATP 100 μM, FIG. 1

[Ca+2].[Cl-].[Cl-] [CaCl2]
plasma membrane cell component response 5 min after contacting [1]: has deflated
ER vesicle volume 5 min after contacting [2]: exhibits a bigger volume as its initial one
ER vesicle volume 5 min after contacting [3]: exhibits a bigger volume as its initial one
internalization in the ER extracellular organelle vesicle [4]: internalized in the ER extracellular organelle vesicle
Fluo8-AM fluorescence signal (calcium concentration inside vesicle) ([4]; cells incubated 1 h with Fluo8-AM): Fluorescence signal is rising after addition of CaCl2
time at which vesicle is deflated to minimum volume (Vi1) and maximum fluorescence (Fi1) [5, 10]: 20 s
time at which vesicle re-swells to final volume and fluorescence (Vf and Ff) [5, 10]: 90 s
vesicle volume at t=300s versus initial state ([5]; role: substrate; CaCl2 60 mOsm/L; ATP 100 μM; FIG. 3 B)): reached a higher volume than the initial state
nucleus cell component response 5 min after contacting [6]: has deflated with no re-swelling
mitochondria vesicle volume 1h after contacting [7]: has deflated
re-swelling process of vesicle ([8]; role: substrate, 60 mOsm/L, following minutes, CaCl2 with ATP (100 μM), sucrose as control): a re-swelling process is gradually observed
deflation of vesicle on contacting ([8]; role: substrate, CaCl2 60 mOsm/L with ATP (100 μM), or sucrose 60 mOsm without ATP stated, vesicle internal 20 mOsm/L, COS7 ER vesicle): the vesicle deflates in a few seconds
time at which vesicle is deflated to minimum volume (Vi1) and maximum fluorescence [8, 11]: 20 s
time at which vesicle re-swells to final volume and fluorescence (Vf and Ff) [8, 11]: 90 s
swelling state of vesicle at t=100s ([8]; role: substrate; CaCl2 60 mOsm/L; ATP 100 μM; FIG. 1 B)): the vesicle has almost reached its initial state of swelling
Vf/Vi1 and Vf/Vi versus reference ratio (transporting activity of SERCA) ([8]; role: substrate, sucrose as reference compound, FIGS. 1 and 2): Vf/Vi1>Vf,ref/Vi1,ref, and Vf/Vi>Vf,ref/Vi,ref
ER vesicle volume 1h after contacting [9]: exhibits the same volume as its initial one
